# Results as given in BindingDB's records for doi:10.1016/j.ejmech.2017.02.022 (Svkm'S Dr. Bhanuben Nanavati College of Pharmacy, 2017).
# Test: Inhibition of ABCB1 in human MCF7/ADR cells assessed as potentiation of vinblastine-induced cytotoxicity by measuring vinblastine IC50 at IC10 after 7 days by SRB assay
row,Compound,IC50 [nM]
1,CCN(CC)CCCn1c2ccccc2c(=O)c2cc(C)cc(C)c21,14
2,Cc1cc(C)c2c(c1)c(=O)c1ccccc1n2CCCN(CCO)CCO,11
3,Cc1cc(C)c2c(c1)c(=O)c1ccccc1n2CCCCN1CCOCC1,4
4,Cc1cc(C)c2c(c1)c(=O)c1ccccc1n2CCCCN1CCCCC1,5
5,CCN(CC)CCCCn1c2ccccc2c(=O)c2cc(C)cc(C)c21,4.1
6,Cc1cc(C)c2c(c1)c(=O)c1ccccc1n2CCCCN(CCO)CCO,3.1
7,Cc1cc(C)c2c(c1)c(=O)c1ccccc1n2CCCCN1CCN(CCO)CC1,1.3
8,Cc1cc(C)c2[nH]c3ccccc3c(=O)c2c1,27
9,Cc1cc(C)c2c(c1)c(=O)c1ccccc1n2CCCN1CCOCC1,20
10,Cc1cc(C)c2c(c1)c(=O)c1ccccc1n2CCCN1CCN(C)CC1,17
11,Cc1cc(C)c2c(c1)c(=O)c1ccccc1n2CCCN1CCCCC1,17
12,Cc1cc(C)c2c(c1)c(=O)c1ccccc1n2CCCN1CCN(CCO)CC1,8
13,Cc1cc(C)c2c(c1)c(=O)c1ccccc1n2CCCCN1CCN(C)CC1,10
